# Assays:
# androgen receptor = molecular target: T1, androgen receptor (Homo sapiens, UniProt P10275); assay: In-Cell-Western determination of androgen receptor degradation in VCaP cells; type: cell-based; conditions: 24 hours treatment; for DC50: concentration for half of the maximal degradation of AR in VCaP cells; for Dmax: maximum degradation of AR in VCaP cells
# T1 construct: endogenous in cells; host or cells: VCaP cells
# T1 sequence (P10275 1-920): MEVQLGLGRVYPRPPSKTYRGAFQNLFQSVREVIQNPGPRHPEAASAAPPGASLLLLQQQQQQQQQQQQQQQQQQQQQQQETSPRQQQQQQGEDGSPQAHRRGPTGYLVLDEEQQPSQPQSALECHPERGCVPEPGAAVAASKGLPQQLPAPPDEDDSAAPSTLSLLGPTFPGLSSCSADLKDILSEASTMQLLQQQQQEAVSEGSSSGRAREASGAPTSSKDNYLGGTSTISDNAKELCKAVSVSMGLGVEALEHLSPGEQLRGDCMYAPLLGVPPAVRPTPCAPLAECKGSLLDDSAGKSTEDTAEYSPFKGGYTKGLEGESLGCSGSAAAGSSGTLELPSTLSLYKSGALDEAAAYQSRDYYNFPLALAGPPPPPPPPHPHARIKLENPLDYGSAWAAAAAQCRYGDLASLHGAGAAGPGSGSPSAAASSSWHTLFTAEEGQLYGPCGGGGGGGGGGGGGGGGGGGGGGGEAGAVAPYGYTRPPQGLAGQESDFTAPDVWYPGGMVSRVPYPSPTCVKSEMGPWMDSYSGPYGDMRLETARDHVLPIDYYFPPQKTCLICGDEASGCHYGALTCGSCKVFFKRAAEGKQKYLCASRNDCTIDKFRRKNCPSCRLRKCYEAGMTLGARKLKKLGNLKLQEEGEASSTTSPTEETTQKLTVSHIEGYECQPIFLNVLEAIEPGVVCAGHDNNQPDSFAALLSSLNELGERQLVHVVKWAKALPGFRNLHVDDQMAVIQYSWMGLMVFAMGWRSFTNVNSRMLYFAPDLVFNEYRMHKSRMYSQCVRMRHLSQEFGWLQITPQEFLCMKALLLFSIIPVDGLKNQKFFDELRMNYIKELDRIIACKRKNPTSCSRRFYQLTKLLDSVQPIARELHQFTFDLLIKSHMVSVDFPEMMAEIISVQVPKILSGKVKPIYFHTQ
# Protocol: The determination evaluated the properties of the compounds in Vcap cells. Intracellular androgen receptor was determined by In-Cell-Western according to the determination steps described below.
# In poly-D-Lysin pretreated 96-well cell culture plate (Corning 3599), Vcap cells were divided into […] volume, and inoculated with 50,000 cells/well in Vcap cell assay medium [DMEM containing phenol red (Gibco catalog number: 11995065); fetal bovine serum FBS (Gibco catalog number: 10099141C)]. Cells were cultured for at least two days.
# 1. First treated cells with compound. Compounds were gradient diluted with DMSO and cell culture medium, so that DMSO contained in cell culture plates was diluted to 0.5% —polypropylene plates were used according to the following protocol:
# (1)(i) 200× stock plate in DMSO was prepared; (ii) 10 mM stock solution was diluted 1:4 with DMSO (10 μL stock solution+40 μL DMSO)=2000 μM, then entered into row 2; (iii) 1:4 (10 μL protac+40 μL DMSO) gradient dilution was performed in row 2 to row 9, and row 1 was reserved for 2000 μM reference compound and row 10 for DMSO. (iv) A total of 8 concentrations (final concentrations on the 200×plate were 2000 μM, 400 μM, 80 μM, etc.). (i) 3×stock solution in medium was prepared; (ii) 3 μL of 200× stock solution was transferred to 197 μL of culture medium (using 12-channel pipette, from line 1 to line 10), i.e. 3× stock solution plate. (iii) The stock solution plate was mixed evenly. (3) (i) The culture medium of Vcap cells was replaced with fresh culture medium, 100 μL volume culture medium. (ii) The well-mixed 3×stock solution was transferred to the cell culture plate (using 12-channel pipette, and 50 μL of stock solution was transferred from line 1 to line 10). (iii) Cells were cultured for 24 hours.
# 2. The expression level of intracellular androgen receptor after compound treatment was […] and determined according to the following method.
# (1)(i) Equal volume of 8% paraformaldehyde was added to the cell culture plate for cell fixation. The fixing solution in the cell plate was discarded and washed three times with PBS. (ii) Triton solution (1:1000 dilution of the stock solution) was prepared. The solution in the cell plate was discarded, and 200 μL of Triton diluent was added into each well. (iii) 2×blocking solution (1:4 dilution of 10×blocking stock solution) was prepared. The solution in the cell plate was discarded, and 100 μL of 2×blocking solution was added into each well. (iv) Primary antibody solution (Androgen receptor Rabbbit mAb, Cell Signaling Technology catalog number: 5153; 1:1000 dilution) was prepared. The solution in the cell plate was discarded, 100 μL volume of primary antibody diluent was added to each well, and incubated at 4° C. overnight. (v) The primary antibody solution was discarded and the cell plate was washed with 1×Wash buffer. (vi) Secondary antibody solution (GOAT Antirabbit IgG (H+L), HRP, Thermo catalog number: 31460; 1:5000 dilution) was prepared, and 100 μL volume of secondary antibody dilution was added to each well for incubation. (vii) The secondary antibody solution in the cell plate was discarded and the cell plate was washed with 1× Wash buffer. (viii) TMB chromogenic solution (BD catalog number: 550534) was prepared, and 100 μL chromogenic solution was added into each well. (ix) 50 μL volume of stop solution (BD catalog number: 550534) was added to each well. (x) The absorption values at OD 450 nm and 570 nm were read though EnVision. (2)(i) Normalized analysis was performed on the number of cells in each well. The solution in the cell plate was discarded, and washed with wash buffer for three times. (ii) Janus dilution (1:3 dilution) was prepared. (iii) 50 μL volume diluent was added to each well for incubation. (iv) The solution in the plate was discarded and washed with deionized water. […]
# VCap cells = assay: Inhibition of proliferation of VCap cells (Cell Titer Glo, 6 days); type: cell-based; conditions: Homo sapiens, VCaP, 144 h
# Protocol: Tumor cell line VCap FGC (ATCC catalog number CRL-2876) was cultured in DMEM (Gibco catalog number 11965-092) medium containing 10% FBS (Gibco catalog number 10099-141C), respectively. During the determination, Vcap cells were replaced with DMEM medium containing 5% FBS and 0.1 nM R1881 (Sigma catalog number R0908).
# Vcap FGC cells were inoculated in a 384-well plate (Perkin Elmer catalog number 6007460) at a cell density of 1200 cells/well in a volume of 20 μL/well and incubated overnight in a carbon dioxide incubator (Thermo). The prepared compound solutions of different concentrations were added in a volume of 5 μL/well. The corresponding vehicle control was set at the same time. After being cultured in the incubator for 6 days, the cell plate and the contents were equilibrated to room temperature, and 25 μL of Cell Titer Glor (Promega catalog number G7573) was added to each well, shake and mix well, incubated in dark for 10-30 minutes, and the signal values were detected though Envision microplate reader (PerkinElmer).
# The percentage inhibition rate of compound-treated wells was calculated from vehicle control wells on the plate, and the percentage inhibition rate data corresponding to different concentrations were fitted by GraphPad prism, and the IC50 values were calculated by 4-parameter nonlinear logic formula.
Structure (SMILES),DC50 (androgen receptor) [nM],Dmax (androgen receptor) [%],Emax (VCap cells) [%],IC50 (VCap cells) [nM]
CC1(C)C(=O)N(c2ccc(C#N)c(Cl)c2)c2ccc(-c3ccc(N4CC(CN5CCN(c6ccc7c(c6)C(=O)N(C6CCC(=O)NC6=O)C7=O)CC5)C4)cc3)cc21 (centres unmarked) [Compound 1],35,68,,
CC1(C)C(=O)N(c2ccc(C#N)c(C(F)(F)F)c2)c2ccc(-c3ccc(N4CC(CN5CCN(c6ccc7c(c6)C(=O)N(C6CCC(=O)NC6=O)C7=O)CC5)C4)cc3)cc21 (centres unmarked) [Compound 3],76,60,,
CC1(C)C(=O)N(c2ccc(C#N)c(Cl)c2)c2ccc(-c3ccc(N4CC(CN5CCN(c6ccc7c(c6)C(=O)N(C6CCC(=O)NC6=O)C7=O)CC5)C4)nc3F)cc21 (centres unmarked) [Compound 14],94,85,94,67
